Measured values as given in article PMC11215778 (Journal of Medicinal Chemistry, 2024).
Like-named read-outs stand apart in the source and are kept apart here.

Columns and labels:
[1] = Plasma stability assay, human plasma; type: in vitro ADME; conditions: pooled plasma, read-out: Plasma stability % remaining at 6 h, hum
Procedure: […] The reactions were terminated by adding 4 vol of ice-cold methanol, and the samples were then mixed vigorously, frozen at −20 °C for 1 h, and left overnight at 8 °C. After that, the samples were centrifuged, and the supernatant was analyzed by means of LC–MS/MS Sciex 6500 triple quadrupole (Sciex, Framingham, MA, USA). Zero time points were prepared by adding ice-cold methanol to the compound prior to the addition of the plasma.

[2] = Microsomal stability, human liver microsomes; type: in vitro ADME; conditions: pooled liver microsomes, pH 7.4, read-out: Microsomal stability CLint, hum
Procedure: (§1) . Zero time points were prepared by adding ice-cold methanol to a mixture of the compound with cofactors prior to the addition of microsomes. […]. Intrinsic clearance (CLint) was calculated using the following formula: [drawing 1] where V = incubation volume per milligram of microsomal protein (μL/mg) and t1/2 = microsomal half-life.

[3] = Plasma stability assay, rat plasma; type: in vitro ADME
[4] = Cytotoxicity assay (CellTiter-Glo) on normal human dermal fibroblasts; type: cell-based; conditions: normal human dermal fibroblasts (NHDF)
Procedure: The cytotoxicity of the compounds was evaluated in nontumor normal human dermal fibroblasts (NHDF) purchased from ATCC (PCS-201-012, Manassas, VA, USA). The cells were negatively tested for the presence of mycoplasma (cat. #: LT07-318 MycoAlert Mycoplasma Detection kit, Lonza). The cells were cultivated in DMEM high glucose 4.5 g/L medium (cat. #: R8758, Merck, Germany). The medium was supplemented with 10% fetal bovine serum (cat. #: F7524, Merck, Germany; inactivated at 56 °C for 30 min) and 1.0% of L-glutamine (cat. #: G7513, Merck, Germany) without antibiotics. Cells were seeded in 384-well format white micro plates (cat. #: 164610, Nunc, Thermo Fisher Scientific, USA) at a concentration of 60,000 cells per mL and left to rest overnight. Next day, 1 and 10 μM concentrations of the tested compounds were added in triplicates. The cells were cultivated at 37 °C and 5% CO2 for 72 h after which a luminescent cell viability assay (CellTiter-Glo 2.0, cat. #: Promega, Madison, USA) was added. The plate was left on a shaker (350 rpm) in the dark for 20 min at RT. Luminescence was measured by a Spark multimode reader from Tecan (Tecan Group Ltd., Switzerland). The signal of the compound-treated cells was related to the value of the untreated control, which was arbitrarily set to 100% viability.

[5] = Microsomal stability, rat liver microsomes; type: in vitro ADME; conditions: pH 7.4
Procedure: as §1

ADRA1A = biological target: T1, ADRA1A (Homo sapiens, UniProt P35348); conditions: read-out: ADRA1A IC50; antagonist activity, receptor stimulated with EC80 of epinephrine, Chem-1 cells
T1 sequence (P35348 1-466): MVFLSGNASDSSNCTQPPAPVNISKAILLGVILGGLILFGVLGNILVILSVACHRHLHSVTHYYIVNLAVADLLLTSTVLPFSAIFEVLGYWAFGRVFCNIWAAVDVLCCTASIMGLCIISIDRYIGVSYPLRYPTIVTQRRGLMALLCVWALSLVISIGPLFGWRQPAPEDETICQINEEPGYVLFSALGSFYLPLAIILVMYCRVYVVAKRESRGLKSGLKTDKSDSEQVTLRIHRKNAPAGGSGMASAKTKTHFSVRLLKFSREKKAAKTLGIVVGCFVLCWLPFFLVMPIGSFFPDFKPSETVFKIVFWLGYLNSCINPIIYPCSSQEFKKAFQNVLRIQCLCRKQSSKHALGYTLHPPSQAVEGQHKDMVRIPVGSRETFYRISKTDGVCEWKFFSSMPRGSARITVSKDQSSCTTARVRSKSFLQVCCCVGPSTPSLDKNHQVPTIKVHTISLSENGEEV
Procedure: All prepared compounds were tested for their antagonistic activity using calcium flux assays on cells overexpressing the ADRA2A or ADRA1A adrenergic receptor as a primary screen (Table 2).
Chem-1 cells overexpressing ADRA2A or 1A adrenergic receptors were purchased from Merck Millipore (cat. #: HTS096RTA and HTS087RTA; Merck, Germany). The cells were cultured according to the manual. […] After 30 min of incubation with the assay buffer at 37 °C and 5% CO2, the cells were incubated at RT in a dark place for another 15 min. […] All compounds were added by an Agilent Bravo Automated Liquid Handling Platform (Agilent Technologies, USA). […] Before each kinetic measurement, the background fluorescence (F0) was measured, and the result was calculated as (Fmax – F0)/F0.

[6] = human liver microsomes 0.5 mg/mL, 10 μM compound
[7] = 10 uM, read-out: NHDF viability at 10 uM (supplement csv)
[8] = 10 μM, untreated control = 100%, read-out: NHDF Viability 10 μM

SMILES	remaining at 6 h, 5 μM ([1]; human plasma, 5 μM, 37 °C) [%]	microsomal CLint at 10 µM [2, 6] [µL/min/mg]	remaining at 6 h, 5 μM [3] [%]	viability at 72 h, 1 µM [4] [%]	viability at 72 h, 10 µM [4, 7] [%]	viability at 72 h, 10 µM [4, 8] [%]	microsomal CLint at 10 µM ([5]; rat liver microsomes) [µL/min/mg]	IC50 (ADRA1A) [nM]	remaining at 6 h, 5 μM ([1]; human) [%]	microsomal CLint at 10 µM ([2]; human) [µL/min/mg]	microsomal CLint at 10 µM ([5]; rat, liver microsomes) [µL/min/mg]
CCOC(=O)[C@@H]1[C@H]2C[C@H]3c4[nH]c5ccccc5c4CCN3C[C@@H]2CC[C@@H]1O [Compound 3a, 17-α-Hydroxyyohimban-16-α-carboxylic Acid Ethyl Ester]	109 ± 1	14	52	111	108	108	3	3340			
CC(C)OC(=O)[C@@H]1[C@H]2C[C@H]3c4[nH]c5ccccc5c4CCN3C[C@@H]2CC[C@@H]1O [Compound 3b, 17-α-Hydroxyyohimban-16-α-carboxylic Acid Isopropyl Ester]	102	17 ± 1	89	108	102	102	3 ± 1	4160			
CC(C)CCOC(=O)[C@@H]1[C@H]2C[C@H]3c4[nH]c5ccccc5c4CCN3C[C@@H]2CC[C@@H]1O [Compound 3c, 17-α-Hydroxyyohimban-16-α-carboxylic Acid (3-Methylbutyl-1-yl) Ester]				117	114	114		2650			
O=C(OC1CCCC1)[C@@H]1[C@H]2C[C@H]3c4[nH]c5ccccc5c4CCN3C[C@@H]2CC[C@@H]1O [Compound 3d, 17-α-Hydroxyyohimban-16-α-carboxylic Acid Cyclopentyl Ester]				113	113	117		2640			
CC(C)(C)OC(=O)[C@@H]1[C@H]2C[C@H]3c4[nH]c5ccccc5c4CCN3C[C@@H]2CC[C@@H]1O [Compound 3e, 17-α-Hydroxyyohimban-16-α-carboxylic Acid tert-Butyl Ester]				123	117	113		10500			
CN1CC[C@H](OC(=O)[C@@H]2[C@H]3C[C@H]4c5[nH]c6ccccc6c5CCN4C[C@@H]3CC[C@@H]2O)C1 [Compound 4p, 17-α-Hydroxyyohimban-16-α-carboxylic Acid (S)-N-Methylpyrrolidin-3-yl Ester]	109 ± 2	10	85 ± 2	88	80	80	1 ± 1	3820			
O=C(O[C@H]1CCOC1)[C@@H]1[C@H]2C[C@H]3c4[nH]c5ccccc5c4CCN3C[C@@H]2CC[C@@H]1O [Compound 4q, 17-α-Hydroxyyohimban-16-α-carboxylic Acid (S)-Tetrahydrofuran-3-yl Ester]	118	15 ± 1	102 ± 1			112	5 ± 1	537			
O=C(OC1COC1)[C@@H]1[C@H]2C[C@H]3c4[nH]c5ccccc5c4CCN3C[C@@H]2CC[C@@H]1O [Compound 4r, 17-α-Hydroxyyohimban-16-α-carboxylic Acid Oxetan-3-yl Ester]			89 ± 1		102			1940	94 ± 14	16 ± 1	2 ± 1
